The supplement of paper PMC10307832

Legend:
Test in all cases: relative viability (nuclei count vs DMSO), 5 days (fraction); higher = more cells survive
Ibrutinib + Decitabine = compound: C=CC(=O)N1CCC[C@@H](n2nc(-c3ccc(Oc4ccccc4)cc3)c3c(N)ncnc32)C1 [Ibrutinib] + Nc1ncn([C@H]2C[C@H](O)[C@@H](CO)O2)c(=O)n1 [Decitabine] (partner 2 µM)
Procedure, shortened: (§1)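 Lung cancer cell lines were pin-tool dosed in 1536-well plates on the day after seeding, with either a lone drug or a fixed anchor-drug dose plus five library-drug doses (not always all listed) in √10 steps. Nuclei were counted on 4× images after 5 days. Relative viability is the ratio of treated-well to vehicle-well nuclei counts, with each value a median of duplicate plates.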

BMX-IN-1 + Foretinib = compound: C=CC(=O)Nc1cc(-n2c(=O)ccc3cnc4ccc(-c5ccc(NS(C)(=O)=O)cc5)cc4c32)ccc1C [BMX-IN-1] + COc1cc2c(Oc3ccc(NC(=O)C4(C(=O)Nc5ccc(F)cc5)CC4)cc3F)ccnc2cc1OCCCN1CCOCC1 [Foretinib] (partner 0.25 µM)
Procedure, shortened: as §1

BMX-IN-1 + Crizotinib = compound: C=CC(=O)Nc1cc(-n2c(=O)ccc3cnc4ccc(-c5ccc(NS(C)(=O)=O)cc5)cc4c32)ccc1C [BMX-IN-1] + C[C@@H](Oc1cc(-c2cnn(C3CCNCC3)c2)cnc1N)c1c(Cl)ccc(F)c1Cl [Crizotinib] (partner 1 µM)
Procedure, shortened: as §1

Ibrutinib + Linsitinib = compound: C=CC(=O)N1CCC[C@@H](n2nc(-c3ccc(Oc4ccccc4)cc3)c3c(N)ncnc32)C1 [Ibrutinib] + C[C@]1(O)C[C@@H](c2nc(-c3ccc4ccc(-c5ccccc5)nc4c3)c3c(N)nccn32)C1 [Linsitinib] (partner 1 µM)
Procedure, shortened: as §1

Question: Which relative viability (Ibrutinib + Decitabine; first compound 0.005 µM) does the source give for SK-MES-1 here?
Answer: The relative viability was 0.39.

Question: What about the relative viability (Ibrutinib + Decitabine; first compound 0.01581 µM) of the same cell line?
Answer: The relative viability was 0.359.

Question: What about the relative viability (Ibrutinib + Decitabine; first compound 0.05 µM) of the same cell line?
Answer: The relative viability was 0.335.

Question: And the relative viability (Ibrutinib + Decitabine; first compound 0.1581 µM)?
Answer: Its relative viability is 0.364.

Question: And the relative viability (Ibrutinib + Decitabine; first compound 0.5 µM)?
Answer: The relative viability was 0.359.

Question: And the relative viability (BMX-IN-1 + Foretinib; first compound 0.02 µM)?
Answer: Its relative viability is 0.877.

Question: And the relative viability (BMX-IN-1 + Foretinib; first compound 0.2 µM)?
Answer: Its relative viability is 1.02.

Question: What about the relative viability (BMX-IN-1 + Foretinib; first compound 0.6325 µM) of the same cell line?
Answer: Its relative viability is 0.967.

Question: And the relative viability (BMX-IN-1 + Foretinib; first compound 2 µM)?
Answer: The relative viability was 0.728.

Question: And the relative viability (BMX-IN-1 + Crizotinib; first compound 0.02 µM)?
Answer: The relative viability was 1.08.

Question: And the relative viability (BMX-IN-1 + Crizotinib; first compound 0.2 µM)?
Answer: Its relative viability is 1.3.

Question: And the relative viability (BMX-IN-1 + Crizotinib; first compound 0.6325 µM)?
Answer: The relative viability was 1.08.

Question: What about the relative viability (BMX-IN-1 + Crizotinib; first compound 2 µM) of the same cell line?
Answer: The relative viability was 1.1.

Question: And the relative viability (Ibrutinib + Linsitinib; first compound 0.005 µM)?
Answer: The relative viability was 1.06.

Question: What about the relative viability (Ibrutinib + Linsitinib; first compound 0.01581 µM) of the same cell line?
Answer: Its relative viability is 0.937.

Question: And the relative viability (Ibrutinib + Linsitinib; first compound 0.05 µM)?
Answer: Its relative viability is 1.11.

Question: And the relative viability (Ibrutinib + Linsitinib; first compound 0.1581 µM)?
Answer: The relative viability was 1.06.

Question: What about the relative viability (Ibrutinib + Linsitinib; first compound 0.5 µM) of the same cell line?
Answer: Its relative viability is 0.447.
